Experimental findings from patent publication US20130244999A1, “Substituted Heterocyclic Compounds” (Incyte Corporation, priority 2008, published 2013) are described below.

The term IC50 denotes the midpoint of a concentration-inhibition curve. High values mean lower potency, low ones higher potency. A word on the inhibition: it is the relative decrease from the control value, in per cent. Read a low inhibition as little suppression.

This assay addresses T1, histamine H4 receptor (Homo sapiens, UniProt Q9H3N8).
T1 construct: expressed in transfected cells; host or cells: HEK293SFM cells (membrane preparation)
In words: Inhibition of histamine H4 receptor (Table A1; H4 membrane binding assay). The note with it: for IC50: histamine H4 receptor, "> a" = exceeds experiment limit. How it is done: Recombinant HEK293SFM cells expressing human H1, H2, H3, H4 or mouse H4 were harvested (Packard Filtermate Harvester) in ice-cold Tris-HCl, (50 mM, pH 7.5, Sigma) with protease inhibitors (Roche) and homogenized with a Polytron homogenizer. The homogenate was centrifuged for 5 minutes at 1000 g to remove nuclei and unbroken cells. The supernatant was centrifuged at 50000 g for 30 minutes, and the resulting pellet was re-suspended in ice-cold Tris-HCl (50 mM, pH 7.5). […] Nonspecific binding was determined by inclusion of 1000× unlabeled ligands. The bound radioactivity was separated by filtration through polyethyleneimine-treated GF/B filters (Perkin Elmer). The filters were washed eight times with ice-cold Tris-HCl (50 mM, pH 7.5), and radioactivity retained on the filters was measured by liquid scintillation counting. The binding data were evaluated with Prism. […]

T1 sequence (Q9H3N8 whole entry): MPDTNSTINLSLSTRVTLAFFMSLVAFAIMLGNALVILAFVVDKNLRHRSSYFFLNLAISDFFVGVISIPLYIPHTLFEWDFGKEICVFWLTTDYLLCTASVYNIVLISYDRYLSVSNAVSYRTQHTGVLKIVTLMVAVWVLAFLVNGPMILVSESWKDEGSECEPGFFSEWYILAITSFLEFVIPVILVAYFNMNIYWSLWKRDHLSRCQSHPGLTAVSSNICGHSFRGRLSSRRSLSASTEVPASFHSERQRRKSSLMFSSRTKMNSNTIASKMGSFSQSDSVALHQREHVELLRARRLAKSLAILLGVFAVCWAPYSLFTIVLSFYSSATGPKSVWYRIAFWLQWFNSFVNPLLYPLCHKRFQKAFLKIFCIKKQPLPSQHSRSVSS

Turning to `CCn1ccc(-c2ccc3c(c2)CN(c2cc(N4CCN(C)CC4)nc(N)n2)C(C)C3)n1` (single isomer, unassigned) [Example 86A, 4-[7-(1-Ethyl-1H-pyrazol-3-yl)-3-methyl-3,4-dihydroisoquinolin-2(1H)-yl]-6-(4-methylpiperazin-1-yl)pyrimidin-2-amine], the IC50 was 40 nM. Same read-out and setting: then `CCn1ccc(-c2ccc3c(c2)CN(c2cc(N4CCN(C)CC4)nc(N)n2)C(C)C3)n1` (single isomer, unassigned) [Example 86B, 4-[7-(1-Ethyl-1H-pyrazol-3-yl)-3-methyl-3,4-dihydroisoquinolin-2(1H)-yl]-6-(4-methylpiperazin-1-yl)pyrimidin-2-amine], with 231 nM; and `CNC(=O)c1cc(-c2ccc3c(c2)CN(c2cc(N4CCN(C)CC4)nc(N)n2)C(C)C3)cn1C` (single isomer, unassigned) [Example 87A, 4-{2-[2-Amino-6-(4-methylpiperazin-1-yl)pyrimidin-4-yl]-3-methyl-1,2,3,4-tetrahydroisoquinolin-7-yl}-N,1-dimethyl-1H-pyrrole-2-carboxamide], with 26 nM. In turn, `CNC(=O)c1cc(-c2ccc3c(c2)CN(c2cc(N4CCN(C)CC4)nc(N)n2)C(C)C3)cn1C` (single isomer, unassigned) [Example 87B, 4-{2-[2-Amino-6-(4-methylpiperazin-1-yl)pyrimidin-4-yl]-3-methyl-1,2,3,4-tetrahydroisoquinolin-7-yl}-N,1-dimethyl-1H-pyrrole-2-carboxamide] returned an inhibition at 1 µM of 69%. `CCNC(=O)c1cc(-c2ccc3c(c2)CN(c2cc(N4CCN(C)CC4)nc(N)n2)C(C)C3)cn1C` (single isomer, unassigned) [Example 88A, 4-{2-[2-Amino-6-(4-methylpiperazin-1-yl)pyrimidin-4-yl]-3-methyl-1,2,3,4-tetrahydroisoquinolin-7-yl}-N-ethyl-1-methyl-1H-pyrrole-2-carboxamide] displayed an IC50 of 25 nM. Regarding `CCNC(=O)c1cc(-c2ccc3c(c2)CN(c2cc(N4CCN(C)CC4)nc(N)n2)C(C)C3)cn1C` (single isomer, unassigned) [Example 88B, 4-{2-[2-Amino-6-(4-methylpiperazin-1-yl)pyrimidin-4-yl]-3-methyl-1,2,3,4-tetrahydroisoquinolin-7-yl}-N-ethyl-1-methyl-1H-pyrrole-2-carboxamide], the inhibition at 1 µM is 74%. As for `CC1Cc2ccc(-c3cc(C(=O)N(C)C)n(C)c3)cc2CN1c1cc(N2CCN(C)CC2)nc(N)n1` (single isomer, unassigned) [Example 89A, 4-{2-[2-Amino-6-(4-methylpiperazin-1-yl)pyrimidin-4-yl]-3-methyl-1,2,3,4-tetrahydroisoquinolin-7-yl}-N,1N,1-trimethyl-1H-pyrrole-2-carboxamide], the IC50 is 26 nM.

For `CC1Cc2ccc(-c3cc(C(=O)N(C)C)n(C)c3)cc2CN1c1cc(N2CCN(C)CC2)nc(N)n1` (single isomer, unassigned) [Example 89B, 4-{2-[2-Amino-6-(4-methylpiperazin-1-yl)pyrimidin-4-yl]-3-methyl-1,2,3,4-tetrahydroisoquinolin-7-yl}-N,1N,1-trimethyl-1H-pyrrole-2-carboxamide], the inhibition at 1 µM stood at 67%.

With `CC(C)NC(=O)c1cc(-c2ccc3c(c2)CN(c2cc(N4CCN(C)CC4)nc(N)n2)C(C)C3)cn1C` (single isomer, unassigned) [Example 90A, 4-{2-[2-Amino-6-(4-methylpiperazin-1-yl)pyrimidin-4-yl]-3-methyl-1,2,3,4-tetrahydroisoquinolin-7-yl}-N-isopropyl-1-methyl-1H-pyrrole-2-carboxamide], the IC50 turned out to be 66 nM. `CC(C)NC(=O)c1cc(-c2ccc3c(c2)CN(c2cc(N4CCN(C)CC4)nc(N)n2)C(C)C3)cn1C` (single isomer, unassigned) [Example 90B, 4-{2-[2-Amino-6-(4-methylpiperazin-1-yl)pyrimidin-4-yl]-3-methyl-1,2,3,4-tetrahydroisoquinolin-7-yl}-N-isopropyl-1-methyl-1H-pyrrole-2-carboxamide] showed an inhibition at 1 µM of 72%.

The compound `CC1Cc2ccc(-c3cc(C(=O)NC4CC4)n(C)c3)cc2CN1c1cc(N2CCN(C)CC2)nc(N)n1` (single isomer, unassigned) [Example 91A, 4-{2-[2-Amino-6-(4-methylpiperazin-1-yl)pyrimidin-4-yl]-3-methyl-1,2,3,4-tetrahydroisoquinolin-7-yl}-N-cyclopropyl-1-methyl-1H-pyrrole-2-carboxamide] had an IC50 of 49 nM.

On to `CC1Cc2ccc(-c3cc(C(=O)NC4CC4)n(C)c3)cc2CN1c1cc(N2CCN(C)CC2)nc(N)n1` (single isomer, unassigned) [Example 91B, 4-{2-[2-Amino-6-(4-methylpiperazin-1-yl)pyrimidin-4-yl]-3-methyl-1,2,3,4-tetrahydroisoquinolin-7-yl}-N-cyclopropyl-1-methyl-1H-pyrrole-2-carboxamide], for which at 1 µM the inhibition was 76%. As to `CC1Cc2ccc(-c3cc(C(=O)N4CCC4)n(C)c3)cc2CN1c1cc(N2CCN(C)CC2)nc(N)n1` (single isomer, unassigned) [Example 92A, 4-[7-[5-(azetidin-1-ylcarbonyl)-1-methyl-1H-pyrrol-3-yl]-3-methyl-3,4-dihydroisoquinolin-2(1H)-yl]-6-(4-methylpiperazin-1-yl)pyrimidin-2-amine], the 50% inhibitory concentration (IC50) worked out at 25 nM. The same measure, in the same setting: then `CC1Cc2ccc(-c3cc(C(=O)N4CCC4)n(C)c3)cc2CN1c1cc(N2CCN(C)CC2)nc(N)n1` (single isomer, unassigned) [Example 92B, 4-[7-[5-(azetidin-1-ylcarbonyl)-1-methyl-1H-pyrrol-3-yl]-3-methyl-3,4-dihydroisoquinolin-2(1H)-yl]-6-(4-methylpiperazin-1-yl)pyrimidin-2-amine], with 127 nM; and `CC1Cc2ccc(-c3cc(C(=O)N(C)CCN(C)C)n(C)c3)cc2CN1c1cc(N2CCN(C)CC2)nc(N)n1` (single isomer, unassigned) [Example 93, 4-{2-[2-Amino-6-(4-methylpiperazin-1-yl)pyrimidin-4-yl]-3-methyl-1,2,3,4-tetrahydroisoquinolin-7-yl}-N-[2-(dimethylamino)ethyl]-N,1-dimethyl-1H-pyrrole-2-carboxamide], with 24 nM. On to `CC1Cc2ccc(-c3cc(C(=O)N4CCC(N(C)C)C4)n(C)c3)cc2CN1c1cc(N2CCN(C)CC2)nc(N)n1` (single isomer, unassigned) [Example 94, 4-[7-(5-{[3-(Dimethylamino)pyrrolidin-1-yl]carbonyl}-1-methyl-1H-pyrrol-3-yl)-3-methyl-3,4-dihydroisoquinolin-2(1H)-yl]-6-(4-methylpiperazin-1-yl)pyrimidin-2-amine], for which the IC50 is 30 nM.

Consider `CC1Cc2ccc(-c3cnn(C4CCOCC4)c3)cc2CN1c1cc(N2CCN(C)CC2)nc(N)n1` (single isomer, unassigned) [Example 95A, 4-(4-methylpiperazin-1-yl)-6-[3-methyl-7-[1-(tetrahydro-2H-pyran-4-yl)-1H-pyrazol-4-yl]-3,4-dihydroisoquinolin-2(1H)-yl]pyrimidin-2-amine], for which the half-maximal inhibitory concentration (IC50) worked out at 35 nM. On the same count and under the same terms, then `CC1Cc2ccc(-c3cnn(CCC#N)c3)cc2CN1c1cc(N2CCN(C)CC2)nc(N)n1` (single isomer, unassigned) [Example 96A, 3-(4-{2-[2-amino-6-(4-methylpiperazin-1-yl)pyrimidin-4-yl]-3-methyl-1,2,3,4-tetrahydroisoquinolin-7-yl}-1H-pyrazol-1-yl)propanenitrile], with 26 nM; and `CC1Cc2ccc(-c3cnn(CCC#N)c3)cc2CN1c1cc(N2CCN(C)CC2)nc(N)n1` (single isomer, unassigned) [Example 96B, 3-(4-{2-[2-Amino-6-(4-methylpiperazin-1-yl)pyrimidin-4-yl]-3-methyl-1,2,3,4-tetrahydroisoquinolin-7-yl}-1H-pyrazol-1-yl)propanenitrile], with 352 nM; and `CC1Cc2ccc(-c3cnn(CC4(C#N)CC4)c3)cc2CN1c1cc(N2CCN(C)CC2)nc(N)n1` (single isomer, unassigned) [Example 97A, 1-[(4-{2-[2-amino-6-(4-methylpiperazin-1-yl)pyrimidin-4-yl]-3-methyl-1,2,3,4-tetrahydroisoquinolin-7-yl}-1H-pyrazol-1-yl)methyl]cyclopropanecarbonitrile], with 44 nM. On to `CC1Cc2ccc(-c3cnn(CC4(C#N)CC4)c3)cc2CN1c1cc(N2CCN(C)CC2)nc(N)n1` (single isomer, unassigned) [Example 97B, 1-[(4-{2-[2-amino-6-(4-methylpiperazin-1-yl)pyrimidin-4-yl]-3-methyl-1,2,3,4-tetrahydroisoquinolin-7-yl}-1H-pyrazol-1-yl)methyl]cyclopropanecarbonitrile], for which the inhibition at 1 µM was found to be 72%. For the compound `CC1Cc2ccc(-c3cnn(C4CCS(=O)(=O)C4)c3)cc2CN1c1cc(N2CCN(C)CC2)nc(N)n1` (single isomer, unassigned) [Example 98A, 4-[7-[1-(1,1-dioxidotetrahydro-3-thienyl)-1H-pyrazol-4-yl]-3-methyl-3,4-dihydroisoquinolin-2(1H)-yl]-6-(4-methylpiperazin-1-yl)pyrimidin-2-amine], the IC50 was determined as 24 nM. Still for that read-out and setting: the value for `CC1Cc2ccc(-c3cnn(CC4CCCO4)c3)cc2CN1c1cc(N2CCN(C)CC2)nc(N)n1` (single isomer, unassigned) [Example 99A, 4-(4-Methylpiperazin-1-yl)-6-[3-methyl-7-[1-(tetrahydrofuran-2-ylmethyl)-1H-pyrazol-4-yl]-3,4-dihydroisoquinolin-2(1H)-yl]pyrimidin-2-amine] was 83 nM.
